Data: ChEMBL document CHEMBL1201862, “PubChem BioAssay data set” (2004)
Values belong to the compound of their own block, whether it stands above or below them. Calls of active or inactive are those of the source.

Columns and labels:
[1] = target: T1, Hexokinase HKDC1 (Homo sapiens, UniProt Q2TB90); test: activation of HKDC1 glucose phosphorylation – biochemical, W721R variant, dose response (AID 504730); type: functional
T1 sequence (Q2TB90 whole entry): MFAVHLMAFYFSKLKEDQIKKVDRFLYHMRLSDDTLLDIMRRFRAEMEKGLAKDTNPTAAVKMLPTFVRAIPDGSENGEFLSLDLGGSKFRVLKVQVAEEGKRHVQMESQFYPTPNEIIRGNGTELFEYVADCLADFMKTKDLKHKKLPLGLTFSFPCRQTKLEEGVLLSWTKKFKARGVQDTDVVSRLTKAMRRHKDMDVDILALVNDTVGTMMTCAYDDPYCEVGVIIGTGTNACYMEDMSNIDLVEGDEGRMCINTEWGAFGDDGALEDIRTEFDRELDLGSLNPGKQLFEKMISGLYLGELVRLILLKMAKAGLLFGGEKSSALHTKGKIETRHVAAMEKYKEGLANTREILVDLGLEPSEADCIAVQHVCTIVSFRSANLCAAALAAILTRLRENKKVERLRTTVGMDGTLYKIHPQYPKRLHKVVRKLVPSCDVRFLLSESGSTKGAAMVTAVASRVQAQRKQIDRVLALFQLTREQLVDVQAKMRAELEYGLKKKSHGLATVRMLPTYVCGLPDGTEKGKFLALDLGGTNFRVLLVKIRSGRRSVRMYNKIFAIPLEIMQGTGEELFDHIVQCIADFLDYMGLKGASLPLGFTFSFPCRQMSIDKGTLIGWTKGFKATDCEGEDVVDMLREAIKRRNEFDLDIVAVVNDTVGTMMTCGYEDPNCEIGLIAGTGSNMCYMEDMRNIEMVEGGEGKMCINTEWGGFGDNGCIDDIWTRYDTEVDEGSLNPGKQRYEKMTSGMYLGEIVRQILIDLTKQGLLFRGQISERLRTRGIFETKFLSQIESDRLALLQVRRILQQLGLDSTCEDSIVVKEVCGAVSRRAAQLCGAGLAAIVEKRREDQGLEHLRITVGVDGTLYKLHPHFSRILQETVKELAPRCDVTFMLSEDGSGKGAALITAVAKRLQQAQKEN

[2] = target: T2, Hexokinase-1 (Homo sapiens, UniProt P19367); test: HK1 enzyme activation by HKDC1 hits – biochemical, selectivity assay for HKDC1 activator project, dose response (AID 504762); type: functional
T2 sequence (P19367 whole entry): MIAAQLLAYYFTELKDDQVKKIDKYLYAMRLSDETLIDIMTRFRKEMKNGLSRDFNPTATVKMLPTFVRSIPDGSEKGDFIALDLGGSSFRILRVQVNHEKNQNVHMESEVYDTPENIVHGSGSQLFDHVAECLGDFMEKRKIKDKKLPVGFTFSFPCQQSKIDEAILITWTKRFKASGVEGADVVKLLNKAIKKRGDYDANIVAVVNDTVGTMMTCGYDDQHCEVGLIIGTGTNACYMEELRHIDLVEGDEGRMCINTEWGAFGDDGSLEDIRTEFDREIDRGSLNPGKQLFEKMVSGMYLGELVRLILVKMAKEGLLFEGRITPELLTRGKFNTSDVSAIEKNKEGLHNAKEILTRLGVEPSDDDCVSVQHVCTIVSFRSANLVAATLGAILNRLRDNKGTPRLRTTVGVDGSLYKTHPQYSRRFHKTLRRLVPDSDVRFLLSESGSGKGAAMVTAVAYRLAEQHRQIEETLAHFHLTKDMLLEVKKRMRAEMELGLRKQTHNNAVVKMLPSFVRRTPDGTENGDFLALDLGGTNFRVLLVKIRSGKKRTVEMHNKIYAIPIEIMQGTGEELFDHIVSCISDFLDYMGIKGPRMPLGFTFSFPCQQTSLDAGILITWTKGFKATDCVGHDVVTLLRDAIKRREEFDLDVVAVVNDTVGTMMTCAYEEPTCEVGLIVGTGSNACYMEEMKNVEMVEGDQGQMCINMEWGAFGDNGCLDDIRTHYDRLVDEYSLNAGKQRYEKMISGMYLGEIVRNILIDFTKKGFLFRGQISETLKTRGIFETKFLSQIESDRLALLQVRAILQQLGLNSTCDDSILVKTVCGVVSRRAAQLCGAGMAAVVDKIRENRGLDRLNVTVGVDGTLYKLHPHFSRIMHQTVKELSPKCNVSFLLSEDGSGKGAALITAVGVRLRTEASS

[3] = target: Histone-lysine N-methyltransferase NSD2 (Homo sapiens, UniProt O96028); type: biochemical
Histone-lysine N-methyltransferase NSD2, sequence (O96028 whole entry): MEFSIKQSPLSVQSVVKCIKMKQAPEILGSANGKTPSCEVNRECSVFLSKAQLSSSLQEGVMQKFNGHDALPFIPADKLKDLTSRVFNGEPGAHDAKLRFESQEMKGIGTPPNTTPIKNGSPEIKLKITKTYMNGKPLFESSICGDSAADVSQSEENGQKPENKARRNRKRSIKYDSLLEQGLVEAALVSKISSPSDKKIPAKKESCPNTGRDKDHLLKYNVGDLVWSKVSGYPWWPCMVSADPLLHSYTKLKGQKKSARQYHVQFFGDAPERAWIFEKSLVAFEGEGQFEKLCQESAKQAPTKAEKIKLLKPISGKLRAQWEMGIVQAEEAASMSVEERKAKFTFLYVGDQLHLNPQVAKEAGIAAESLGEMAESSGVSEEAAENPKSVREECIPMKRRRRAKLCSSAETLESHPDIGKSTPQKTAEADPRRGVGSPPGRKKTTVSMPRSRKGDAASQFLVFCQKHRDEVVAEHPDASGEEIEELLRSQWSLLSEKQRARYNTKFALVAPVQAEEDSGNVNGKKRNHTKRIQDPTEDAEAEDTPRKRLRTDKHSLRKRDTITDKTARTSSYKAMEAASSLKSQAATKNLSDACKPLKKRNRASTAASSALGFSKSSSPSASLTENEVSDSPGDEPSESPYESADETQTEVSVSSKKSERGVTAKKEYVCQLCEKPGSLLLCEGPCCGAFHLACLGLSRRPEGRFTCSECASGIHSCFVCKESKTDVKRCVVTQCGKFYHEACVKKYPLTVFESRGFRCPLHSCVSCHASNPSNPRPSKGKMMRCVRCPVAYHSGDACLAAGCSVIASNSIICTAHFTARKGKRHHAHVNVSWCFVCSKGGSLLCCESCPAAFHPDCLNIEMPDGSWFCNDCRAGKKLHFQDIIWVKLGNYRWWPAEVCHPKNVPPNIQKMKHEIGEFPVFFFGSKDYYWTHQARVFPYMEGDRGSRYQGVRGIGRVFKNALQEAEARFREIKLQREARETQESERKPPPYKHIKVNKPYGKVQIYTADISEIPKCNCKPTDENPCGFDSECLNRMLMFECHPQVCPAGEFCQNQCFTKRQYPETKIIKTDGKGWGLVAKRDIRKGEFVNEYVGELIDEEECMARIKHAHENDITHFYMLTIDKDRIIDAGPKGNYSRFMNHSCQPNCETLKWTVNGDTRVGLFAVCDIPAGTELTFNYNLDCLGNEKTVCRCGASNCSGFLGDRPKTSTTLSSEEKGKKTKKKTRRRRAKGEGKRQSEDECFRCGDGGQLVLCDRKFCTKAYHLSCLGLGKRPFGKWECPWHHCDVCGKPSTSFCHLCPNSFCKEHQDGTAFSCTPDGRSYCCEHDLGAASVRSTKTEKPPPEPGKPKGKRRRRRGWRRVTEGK

[4] = target: Heat shock protein HSP 90-alpha (Homo sapiens, UniProt P07900); type: functional, organism-based
[5] = target: Keap1/Nrf2 (Homo sapiens, UniProt Q14145); test: disruptors of Keap1 binding to Nrf2 peptide – biochemical, fluorescence polarization, cherry-picked samples, dose response (AID 588683)
Keap1/Nrf2, sequence (Q16236 whole entry): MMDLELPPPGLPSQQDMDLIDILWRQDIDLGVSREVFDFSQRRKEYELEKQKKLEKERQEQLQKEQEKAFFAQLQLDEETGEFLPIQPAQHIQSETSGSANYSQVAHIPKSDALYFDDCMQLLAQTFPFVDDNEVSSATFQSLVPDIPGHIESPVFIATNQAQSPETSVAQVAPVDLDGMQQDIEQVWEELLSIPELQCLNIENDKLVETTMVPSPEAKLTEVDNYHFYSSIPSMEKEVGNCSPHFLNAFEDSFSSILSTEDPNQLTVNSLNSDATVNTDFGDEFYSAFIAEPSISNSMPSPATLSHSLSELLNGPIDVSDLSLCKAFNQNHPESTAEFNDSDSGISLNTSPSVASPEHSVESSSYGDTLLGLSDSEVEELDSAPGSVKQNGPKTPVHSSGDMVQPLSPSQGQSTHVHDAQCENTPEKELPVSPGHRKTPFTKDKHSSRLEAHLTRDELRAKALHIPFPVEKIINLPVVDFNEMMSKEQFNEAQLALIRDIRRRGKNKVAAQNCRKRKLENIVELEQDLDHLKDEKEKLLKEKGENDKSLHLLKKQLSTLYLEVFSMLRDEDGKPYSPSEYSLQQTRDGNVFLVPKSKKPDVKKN
Keap1/Nrf2, sequence (Q14145 whole entry): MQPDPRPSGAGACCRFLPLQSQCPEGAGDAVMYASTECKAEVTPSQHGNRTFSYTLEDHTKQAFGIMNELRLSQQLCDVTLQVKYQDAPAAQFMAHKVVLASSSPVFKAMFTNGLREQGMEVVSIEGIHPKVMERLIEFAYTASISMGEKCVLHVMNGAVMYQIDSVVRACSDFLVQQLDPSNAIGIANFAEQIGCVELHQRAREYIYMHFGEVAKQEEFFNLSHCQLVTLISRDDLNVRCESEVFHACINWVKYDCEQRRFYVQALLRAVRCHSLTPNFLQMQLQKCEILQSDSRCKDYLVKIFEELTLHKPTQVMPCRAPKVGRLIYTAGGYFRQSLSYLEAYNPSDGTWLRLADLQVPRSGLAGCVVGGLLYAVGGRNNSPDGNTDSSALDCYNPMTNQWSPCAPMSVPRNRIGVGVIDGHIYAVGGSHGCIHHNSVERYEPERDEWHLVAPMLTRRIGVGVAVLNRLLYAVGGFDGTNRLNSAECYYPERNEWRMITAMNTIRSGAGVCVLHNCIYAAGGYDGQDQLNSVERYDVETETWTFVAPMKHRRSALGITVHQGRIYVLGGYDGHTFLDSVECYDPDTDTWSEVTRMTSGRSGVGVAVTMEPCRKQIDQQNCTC

[6] = target: Protein S100-A4 (Homo sapiens, UniProt P26447); test: human S100A4 peptide interaction inhibition curves – biochemical, fluorescence polarization, cherry-picked hits, dose response (AID 687001); type: functional
Protein S100-A4, sequence (P26447 whole entry, the tested form may be a part): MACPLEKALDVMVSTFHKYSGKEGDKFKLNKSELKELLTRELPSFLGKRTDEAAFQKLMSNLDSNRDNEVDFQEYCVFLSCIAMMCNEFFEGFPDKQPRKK

[7] = target: Photoreceptor-specific nuclear receptor (Homo sapiens, UniProt Q9Y5X4); type: functional, cell-based;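 note: CHO-S cells with Gal4-NCOR and VP16-NR2E3 two-hybrid luciferase reporter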
Photoreceptor-specific nuclear receptor, sequence (Q9Y5X4 whole entry, the tested form may be a part): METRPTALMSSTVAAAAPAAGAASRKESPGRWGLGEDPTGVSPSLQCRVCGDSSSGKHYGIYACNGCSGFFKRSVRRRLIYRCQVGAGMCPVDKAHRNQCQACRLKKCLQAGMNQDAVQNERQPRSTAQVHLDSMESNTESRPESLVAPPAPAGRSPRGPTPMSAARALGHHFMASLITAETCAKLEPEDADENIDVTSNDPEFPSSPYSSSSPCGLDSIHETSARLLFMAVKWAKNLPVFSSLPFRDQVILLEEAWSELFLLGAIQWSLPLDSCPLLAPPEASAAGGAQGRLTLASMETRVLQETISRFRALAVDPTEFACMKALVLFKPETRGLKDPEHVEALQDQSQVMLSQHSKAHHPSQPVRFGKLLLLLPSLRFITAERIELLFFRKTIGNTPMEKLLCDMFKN

[8] = target: Paired box protein Pax-8 (Homo sapiens, UniProt Q06710); test: PAX8 transcriptional activity inhibition in RMG-I – RMG-I cells, luciferase, cherry-pick, dose response (AID 687027); type: functional, cell-based;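 note: luciferase reporter driven by Pax8 target thyroperoxidase promoter measured by SteadyGlo luminescence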
Paired box protein Pax-8, sequence (Q06710 whole entry): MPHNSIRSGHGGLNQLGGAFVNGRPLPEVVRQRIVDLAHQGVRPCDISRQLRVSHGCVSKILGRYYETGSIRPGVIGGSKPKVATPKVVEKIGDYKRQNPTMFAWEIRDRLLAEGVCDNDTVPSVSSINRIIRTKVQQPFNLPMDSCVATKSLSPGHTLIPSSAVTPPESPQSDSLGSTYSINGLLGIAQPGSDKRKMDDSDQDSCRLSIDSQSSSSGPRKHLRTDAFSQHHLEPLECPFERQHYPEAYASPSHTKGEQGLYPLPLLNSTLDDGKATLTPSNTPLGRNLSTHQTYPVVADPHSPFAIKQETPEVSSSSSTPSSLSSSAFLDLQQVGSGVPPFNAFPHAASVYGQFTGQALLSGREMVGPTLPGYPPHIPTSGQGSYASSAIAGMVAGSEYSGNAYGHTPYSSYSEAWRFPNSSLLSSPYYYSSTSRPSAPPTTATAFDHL

[9] = target: T3, Intestinal-type alkaline phosphatase (Homo sapiens, UniProt P09923); test: human intestinal alkaline phosphatase activators, dose response, biochemical, luminescence, uHTS hits (AID 463120); type: functional
T3 sequence (P09923 whole entry): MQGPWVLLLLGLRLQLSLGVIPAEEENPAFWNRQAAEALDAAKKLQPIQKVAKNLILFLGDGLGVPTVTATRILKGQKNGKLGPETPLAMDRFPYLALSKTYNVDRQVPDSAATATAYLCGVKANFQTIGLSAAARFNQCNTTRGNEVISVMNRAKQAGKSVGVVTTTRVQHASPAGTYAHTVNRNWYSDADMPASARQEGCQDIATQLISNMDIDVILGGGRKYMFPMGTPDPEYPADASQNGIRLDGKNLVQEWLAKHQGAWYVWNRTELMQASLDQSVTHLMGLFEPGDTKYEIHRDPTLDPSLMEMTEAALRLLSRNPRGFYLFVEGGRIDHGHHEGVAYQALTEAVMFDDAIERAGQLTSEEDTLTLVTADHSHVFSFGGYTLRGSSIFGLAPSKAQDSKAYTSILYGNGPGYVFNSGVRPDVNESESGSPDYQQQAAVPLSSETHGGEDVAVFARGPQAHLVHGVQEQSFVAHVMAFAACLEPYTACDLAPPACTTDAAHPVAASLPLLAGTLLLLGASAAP

[10] = Luminescence Cell-Based Dose Retest to Confirm Inhibitors of Cancer Stem Cells. [Related pubchem assays (depositor defined):AID2717, AID2721]; type: functional; conditions: Homo sapiens
[11] = target: T4, Alkaline phosphatase, tissue-nonspecific isozyme (Homo sapiens, UniProt P05186); test: activation of tissue-nonspecific alkaline phosphatase – biochemical, TNAP isozyme, human IAP uHTS hits, selectivity assay for human IAP activator project, dose response (AID 488886); type: functional;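 note: potency of compounds raising TNAP activity as a selectivity check on IAP activators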
T4 sequence (P05186 whole entry): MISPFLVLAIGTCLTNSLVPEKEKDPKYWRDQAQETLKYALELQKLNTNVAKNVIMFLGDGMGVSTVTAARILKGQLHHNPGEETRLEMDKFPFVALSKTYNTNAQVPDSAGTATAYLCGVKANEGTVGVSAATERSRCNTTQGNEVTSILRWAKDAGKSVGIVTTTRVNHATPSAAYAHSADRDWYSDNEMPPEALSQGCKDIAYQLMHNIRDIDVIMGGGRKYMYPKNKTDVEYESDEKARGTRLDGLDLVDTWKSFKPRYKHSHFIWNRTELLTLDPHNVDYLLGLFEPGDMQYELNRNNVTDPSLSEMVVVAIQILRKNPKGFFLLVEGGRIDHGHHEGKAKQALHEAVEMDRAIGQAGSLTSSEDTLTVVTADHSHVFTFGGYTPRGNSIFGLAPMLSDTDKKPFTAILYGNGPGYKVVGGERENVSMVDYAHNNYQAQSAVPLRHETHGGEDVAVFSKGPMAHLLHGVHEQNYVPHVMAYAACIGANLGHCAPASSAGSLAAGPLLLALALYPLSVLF

[12] = target: Intestinal-type alkaline phosphatase (Mus musculus, UniProt P24822); test: PubChem AID 488874; type: functional
Intestinal-type alkaline phosphatase (Mus musculus, UniProt P24822), sequence (P24822 whole entry): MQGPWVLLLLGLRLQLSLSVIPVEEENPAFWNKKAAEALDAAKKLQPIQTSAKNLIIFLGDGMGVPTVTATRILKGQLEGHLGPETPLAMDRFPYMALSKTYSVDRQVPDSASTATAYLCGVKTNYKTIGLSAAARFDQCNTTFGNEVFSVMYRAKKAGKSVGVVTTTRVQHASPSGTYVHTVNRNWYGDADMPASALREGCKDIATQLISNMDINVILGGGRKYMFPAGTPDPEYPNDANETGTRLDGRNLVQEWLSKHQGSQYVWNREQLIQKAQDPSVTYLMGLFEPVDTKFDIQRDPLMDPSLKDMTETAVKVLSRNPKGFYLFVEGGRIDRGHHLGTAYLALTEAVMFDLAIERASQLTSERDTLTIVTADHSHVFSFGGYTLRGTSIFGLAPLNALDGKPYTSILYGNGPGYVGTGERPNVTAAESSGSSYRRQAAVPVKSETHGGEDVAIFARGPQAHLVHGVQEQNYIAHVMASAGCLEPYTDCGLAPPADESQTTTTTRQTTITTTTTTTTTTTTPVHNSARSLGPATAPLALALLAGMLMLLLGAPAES

[13] = target: T3, Intestinal-type alkaline phosphatase; test: activation of human intestinal alkaline phosphatase – biochemical, luminescent, uHTS hits, set 2, dose response (AID 488817); type: functional;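 note: potency of activators that raise enzyme activity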

EC50 [1]: 51.6 µM (inactive)
EC50 [2]: 34.1 µM (inactive)
AC50 [3]: 10.4 µM (active)
SMILES: CC(=O)Oc1cccc2c1C(=O)C1CC=CC(OC(C)=O)C1C2=O (stereo not drawn)

SMILES: COc1cccc2c1C(=O)c1c(O)c3c(c(O)c1C2=O)CC(O)(C(C)=O)CC3OC1CC(N(C)C)C(O)C(C)O1 (stereo not drawn)
AC50 [4]: 0.807 µM (active)
AC50 [5]: > 52 µM (inactive)
AC50 [6]: 0.304 µM (active)
IC50 [7]: 3.82 µM (active)
AC50 [8]: 1.52 µM (active)

SMILES: O=C(Nc1ccon1)c1nc[nH]c1C(=O)NCc1ccccc1
EC50 [9]: 14.2 µM (active)
AC50 [10]: 0.76 µM (active)
EC50 [11]: 16.4 µM (active)
IC50 [12]: 38.8 µM (active)
EC50 [13]: 13.9 µM (active)
